In patent US20070219159A1, “CYCLODEXTRIN COMPOSITIONS AND METHODS OF TREATING VIRAL INFECTIONS” (priority 2002, published 2007):
Converted amounts (≈) assume the structure as drawn.

Key:
HSV-1 = HSV-1 plaque formation / IC50 study in Vero cells; type: cell-based; details: for Plaques ± Std. Dev.: HSV-1 plaques per well, 48 hours
HSV-2 strain MS = experiment: CPE reduction assay in Vero cells, HSV-2; type: cell-based
[1] = Human alphaherpesvirus 1, Vero, read-out: % of control ± SEM

## OC[C@H]1O[C@@H]2O[C@H]3[C@H](O)[C@@H](O)[C@@H](O[C@H]4[C@H](O)[C@@H](O)[C@@H](O[C@H]5[C@H](O)[C@@H](O)[C@@H](O[C@H]6[C@H](O)[C@@H](O)[C@@H](O[C@H]7[C@H](O)[C@@H](O)[C@@H](O[C@H]8[C@H](O)[C@@H](O)[C@@H](O[C@H]1[C@H](O)[C@H]2O)O[C@@H]8CO)O[C@@H]7CO)O[C@@H]6CO)O[C@@H]5CO)O[C@@H]4CO)O[C@@H]3CO [BCD, β-cyclodextrin]
HSV-1; BCD 3.5 mg/ml
  Plaques ± Std. Dev.: 119.0 ± 1.0
HSV-1; BCD 4.0 mg/ml
  Plaques ± Std. Dev.: 111.0 ± 6.6
HSV-1; BCD 4.5 mg/ml
  Plaques ± Std. Dev.: 84.0 ± 10.53
HSV-1; BCD 5.0 mg/ml
  Plaques ± Std. Dev.: 74.67 ± 4.51
HSV-1; BCD 5.5 mg/ml
  Plaques ± Std. Dev.: 54.67 ± 5.68
HSV-1; BCD 6.0 mg/ml
  Plaques ± Std. Dev.: <10
HSV-1; Human alphaherpesvirus 1, Vero, 48 h
  IC50: 5100 µg/mL (≈ 4.49 mM)
HSV-1; [1]
  activity at 3500 µg/mL: 85.2 ± 0.58%
  activity at 4000 µg/mL: 79.5 ± 3.8%
  activity at 4500 µg/mL: 60.1 ± 6.08%
  activity at 5000 µg/mL: 53.5 ± 2.6%
  activity at 5500 µg/mL: 39.1 ± 3.28%
HSV-2 strain MS; HSV-2, MOI 0.001 and 0.1, BCD 7-8 mg/ml
  protection of Vero cells by inhibition of viral CPE: almost complete protection
HSV-2 strain MS; HSV-2, MOI 2.0
  inhibition of infection, direct microscopy and crystal violet staining: inhibited infection
HSV-2 strain MS; HSV-2, MOI >50, BCD 7-8 mg/ml
  anti-herpes effects at high multiplicity of infection: exhibited anti-herpes effects
